Data from US5250305A, “Process for enzymatic ultrafiltration of deamidated protein” (The United States of America as represented by the …, priority 1990, dated 1993).
Peptide text beside a SMILES is read from it.

System: PGase
Assay: Km and Vmax of PGase substrates (Lineweaver-Burk plot)
Format: biochemical, Bacillus circulans
Details: 0.05 M phosphate buffer, pH 7.0, 30° C.
Protocol: A 1 mL enzyme preparation containing 0.25-0.50 mg protein was added to 2-5 mL substrate in 0.05 M phosphate buffer, pH 7.0. The substrate concentrations were 0.2% CBZ-L-Gln, 0.2% BOC-Gln-Pro and 0.2% peptone type IV. Peptone solutions (5%) were ultrafiltered prior to use, through the 30 kd spiral membrane incubated at 30° C. for 30 or 60 min, then the ammonia constant of the samples was determined with a model 95-10 ammonia electrode (Orion Research Inc., Cambridge, Mass.).
The effects of the molarity and pH of the sodium phosphate buffer on PGase activity were studied. The progress of the PGase deamidation reaction of Peptone IV in 0.05 M phosphate buffer, pH 7.0, as a function of time was measured at 25° C. and 30° C.

Km | Vmax | Structure (SMILES)
143 µM | 0.52 µmol/min/mg | CC(C)(C)OC(=O)N[C@@H](CCC(N)=O)C(=O)N1CCC[C@H]1C(=O)O [BOC-glutamine-proline, t-BOC-L-glutaminyl-L-proline] (HELM PEPTIDE1{[CC(C)(C)OC(=O)[*:2]].Q.P}$$$$V2.0)
67 µM | – | NC(=O)CC[C@H](NC(=O)OCc1ccccc1)C(=O)O [CBZ-glutamine, CBZ-L-glutamine]
